In one test the target is Replicase polyprotein 1a (Severe acute respiratory syndrome-related coronavirus, UniProt P0C6U8). Briefly: Inhibition of SARS coronavirus 3CLpro using Dabcyl-KTSAVLQ/SGFRKME-Edans as substrate preincubated for 30 mins followed by substrate addition by FRET assay.
Test [1] in a line: Inhibition of norovirus 3CLpro using Edans-DFHLQ/GP-Dabcyl as substrate preincubated for 30 mins followed by substrate addition by FRET assay.
Another test concerns the target Genome polyprotein (Coxsackievirus B3 (strain Nancy), UniProt P03313). Description: Inhibition of Coxsackievirus B3 Nancy 3Cpro.

The record followed here is ChEMBL document CHEMBL2396618, “Macrocyclic inhibitors of 3C and 3C-like proteases of picornavirus, norovirus, and coronavirus” (Bioorg Med Chem Lett, 2013).

As a reminder, the IC50 is the concentration that gives 50% inhibition.

Sequence of Genome polyprotein (P03313 1541-1723 limits assumed): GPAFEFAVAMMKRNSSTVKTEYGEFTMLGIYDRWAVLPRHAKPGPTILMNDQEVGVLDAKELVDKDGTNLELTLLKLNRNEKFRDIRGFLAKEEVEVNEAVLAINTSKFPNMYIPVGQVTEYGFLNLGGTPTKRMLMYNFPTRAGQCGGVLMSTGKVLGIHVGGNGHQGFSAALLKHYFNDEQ

As to `CC(C)C[C@@H]1NC(=O)[C@@H](NC(=O)OCc2ccccc2)Cc2cn(nn2)CCCNC(=O)CC[C@@H](C=O)NC1=O`, the IC50 at Replicase polyprotein 1a came out at 15.5 µM; in test [1], 5.1 µM; at Genome polyprotein, 1.8 µM.
